Patent US20090053168A1, “TREATMENTS OF B-CELL PROLIFERATIVE DISORDERS” (priority 2007, published 2009)
Several values for one entry are separate records, joined by “and”; a condition that tells them apart may be missing. Equal values may be shown once. Read-outs that look alike come from different tables or passages of the source.

How the values were obtained:
RPMI-8226 cells = assay: Anti-proliferation assay (ATPLite, 72 h), RPMI-8226; type: cell-based; conditions: in combination with ADAC; RPMI-8226
H929 cells = assay: Anti-proliferation assay (ATPLite, 72 h), H929; type: cell-based
MM.1R cells = assay: Anti-proliferation assay (ATPLite, 72 h), MM.1R; type: cell-based; conditions: in combination with ADAC; MM.1R
MOLP-8 cells = assay: Anti-proliferation assay (ATPLite, 72 h), MOLP-8; type: cell-based; conditions: in combination with CGS-21680
OPM2 cells = assay: Anti-proliferation assay (ATPLite, 72 h), OPM2; type: cell-based, human; conditions: in combination with CGS-21680; OPM-8
EJM cells = assay: Anti-proliferation assay (ATPLite, 72 h), EJM; type: cell-based
ANBL-6 cells = assay: Anti-proliferation assay (ATPLite, 72 h), ANBL-6; type: cell-based; conditions: in combination with CGS-21680
KSM-12-PE cells = assay: Anti-proliferation assay (ATPLite, 72 h), KSM-12-PE; type: cell-based
OCI-ly10 DLBCL cells = assay: Anti-proliferation assay (ATPLite, 72 h), OCI-ly10; type: cell-based; conditions: in combination with CGS-21680
Karpas 422 DLBCL cells = assay: Anti-proliferation assay (ATPLite, 72 h), Karpas 422; type: cell-based; conditions: in combination with CGS-21680
SU-DHL6 DLBCL cells = assay: Anti-proliferation assay (ATPLite, 72 h), SU-DHL6; type: cell-based; conditions: in combination with CGS-21680
[1] = tested on: chronic lymphocytic leukemia (CLL) cells; assay: Apoptosis assay (Hoechst 33342 flow cytometry, 48 h) on patient CLL cells; type: cell-based, human
From the text: Patients with active infections or other serious medical conditions were not included in this study. Patients with white blood cell counts of less than 15,000/μl by automated analysis were excluded from this study. Whole blood was layered on Ficoll-Hystopaque (Sigma), and peripheral blood mononuclear cells (PBMC) isolated after centrification. […] One million cells were stained with anti-CD5-PE and anti-CD19-PE-Cy5 (Becton […].). The percentage of B-CLL cells was defined as the percentage of cells doubly expressing CD5 and CD19, as determined by flow cytometry. […] Compound master plates were diluted 1:50 into complete media to create working compound dilutions. Compound crosses were then created by diluting two working dilution plates 1:10 into each plate of cells. […] Hoechst 33342 (Molecular Probes, Eugene Oreg.) at a final concentration of 0.25 μg/mL was added to each well and the cells incubated at 37° C. for an additional ten minutes before being placed on ice until analysis. Plates were then analyzed on a LSR-II flow cytometer (Becton Dickenson, Franklin Lakes, N.J.) equipped with the High Throughput Sampling (HTS) option in high throughput mode. […] The apoptotic fraction was calculated using FlowJo software (Tree Star Inc., Ashland, Oreg.) after excluding debris by a FSC/SSC gate and subsequently gating for cells that accumulate the Hoechst dye.

MM.1S cells [2] = tested on: MM.1S cells
MM.1S cells [3] = assay: Anti-proliferation assay (ATPLite, 72 h), MM.1S
[4] = tested on: mantle cell lymphoma cell line Mino; assay: Anti-proliferation assay (ATPLite, 72 h), Mino; type: cell-based, human; conditions: in combination with HE-NECA; Mino
Protocol: (§1) All of the cell lines were cultured in RPMI-1640 media supplemented with 10% FBS except OCI Ly10 cells (IMDM media supplemented with 20% human serum). The ANBL-6 cell line culture media also contained 10 ng/ml IL-6. MM.1S, MM.1R, SU-DHL6, Karpas 422, and OCI ly10 cells were provided by the Dana Farber Cancer Institute. ANBL-6 cells were provided by Bob Orlowsli (M.D. Anderson Cancer Research Center). H929, RPMI-8226, GA-10, Farage, Mino, JVM-13, Pfeiffer, Toledo, and Kusami-1 cells were from ATCC (Cat #'s CCL-155, CRL-9068, CRL-2392 CRL-2630, CRL-3000, CRL-3003, CRL-2632, CRL-2631, and CRL-2724 respectively). MOLP-8, OPM2, EJM, and KSM-12-PE cells were from DSMZ.
(§2) Compounds were prepared in DMSO at 1000× the highest desired concentration. Master plates were generated consisting of serially diluted compounds in 2- or 3-fold dilutions in 384-well format. For single agent dose response curves, the master plates consisted of 9 individual compounds at 12 concentrations in 2- or 3-fold dilutions. For combination matrices, master plates consisted of individual compounds at 6 or 9 concentrations at 2- or 3-fold dilutions.
(§3) The average untreated well value (avg. untreated wells) is the arithmetic mean of 40 wells from the same assay plate treated with vehicle alone. Negative inhibition values result from local variations in treated wells as compared to untreated wells.
(§4) The uncertainty of each fitted parameter was estimated from the range over which the change in reduced chi-squared was less than one, or less than minimum reduced chi-squared if that minimum exceeded one, to allow for underestimated σI errors.
(§5) Single agent curve data were used to define a dilution series for each compound to, be used for combination screening in a 6×6 matrix format. […] For compounds with no detectable single agent activity, a dilution factor of 4 was used, starting from the highest achievable concentration.
(§6) The Loewe additivity model was used to quantify combination effects. Combinations were ranked initially by Additivity Excess Volume, which is defined as ADD Volume=ΣCX, CY(Idata−ILoewe). where ILoewe(CX,CY) is the inhibition that satisfies (CX/ECX)+(CY/ECY)=1, and ECX,Y are the effective concentrations at ILoewe for the single agent curves. A “Synergy Score” was also used, where the Synergy Score S=log fX log fY ΣIdata (Idata−ILoewe), summed over all non-single-agent concentration pairs, and where log fX,Y is the natural logarithm of the dilution factors used for each single agent.

[5] = tested on: mantle cell lymphoma cell line JVM-13; assay: Anti-proliferation assay (ATPLite, 72 h), JVM-13; type: cell-based, human; conditions: in combination with HE-NECA; JVM-13
Protocol: as §1, §2, §3, §4, §5, §6

[6] = tested on: Pfeiffer (diffuse large B cell lymphoma) cells; assay: Anti-proliferation assay (ATPLite, 72 h), Pfeiffer; type: cell-based; conditions: in combination with HE-NECA
Protocol: as §1, §2
(§7) The average untreated well value (avg. untreated wells) is the arithmetic mean of 40 wells from the same assay plate treated with vehicle alone. […]
(§8) The Loewe additivity model was used to quantify combination effects. […]

[7] = tested on: Kasumi-1 (acute myelogenous leukemia) cells; assay: Anti-proliferation assay (ATPLite, 72 h), Kasumi-1; type: cell-based; conditions: in combination with HE-NECA
Protocol: as §1, §2, §7, §8

C[C@@H]1C[C@H]2[C@@H]3CCC4=CC(=O)C=C[C@]4(C)[C@@]3(F)[C@@H](O)C[C@]2(C)[C@@]1(O)C(=O)CO [dexamethasone]
synergy score (RPMI-8226 cells): 4.71
synergy score (H929 cells; in combination with ADAC, H929): 7.09
synergy score (MM.1R cells): 0.33
synergy score (MOLP-8 cells): 4.86
synergy score (OPM2 cells): 2.85
synergy score (EJM cells; in combination with CGS-21680): 5.32
synergy score (ANBL-6 cells): 1.25
synergy score (KSM-12-PE cells; in combination with CGS-21680, KSM-12-PE): 1.27
synergy score (OCI-ly10 DLBCL cells): 4.21
synergy score (Karpas 422 DLBCL cells): 4.32
synergy score (SU-DHL6 DLBCL cells): 4.85
Induction of CLL cell apoptosis ([1]; Patient #1, Dexamethasone 1 nM alone): 9.3%
Induction of CLL cell apoptosis ([1]; Patient #1, Dexamethasone 10 nM alone): 33%
Induction of CLL cell apoptosis ([1]; Patient #1, Dexamethasone 100 nM alone): 56%
Induction of CLL cell apoptosis ([1]; Patient #2, Dexamethasone 8.4 nM alone): 8.4%
Induction of CLL cell apoptosis ([1]; Patient #2, Dexamethasone 11 nM alone): 11%
Induction of CLL cell apoptosis ([1]; Patient #2, Dexamethasone 36 nM alone): 36%
Induction of CLL cell apoptosis ([1]; Patient #2, Dexamethasone 50 nM alone): 50%
apoptosis, CLL cells patient 1 ([1]; patient 1, 48 hours): 33%
apoptosis, CLL cells patient #2 ([1]; patient #2, 48 hours): 27%
inhibition (MM.1S cells [2]): 47% and 36% and 60% and 48%
percent inhibition of cell proliferation (MM.1S cells [3]; DEX 0.0462 nM, Cl-IB-MECA 0 nM, MM.1S, 72 h): 12%
percent inhibition of cell proliferation (MM.1S cells [3]; DEX 0.139 nM alone, listed as DEX): 1.8% and 10%
percent inhibition of cell proliferation (MM.1S cells [3]; DEX 0.139 nM, Cl-IB-MECA 0 nM, MM.1S, 72 h): 0.78%
percent inhibition of cell proliferation (MM.1S cells [3]; DEX 0.416 nM alone): 8.3%
percent inhibition of cell proliferation (MM.1S cells [3]; DEX 1.85 nM alone, listed as DEX): 14% and 27%
percent inhibition of cell proliferation (MM.1S cells [3]; DEX 1.85 nM, CCPA 0 μM, MM.1S, 72 h): 13%
percent inhibition of cell proliferation (MM.1S cells [3]; DEX 3.74 nM alone): 32%
percent inhibition of cell proliferation (MM.1S cells [3]; DEX 3.74 nM, Cl-IB-MECA 0 nM, MM.1S, 72 h): 22%
percent inhibition of cell proliferation (MM.1S cells [3]; DEX 5.56 nM alone, listed as DEX): 20% and 30% and 33%
percent inhibition of cell proliferation (MM.1S cells [3]; DEX 5.56 nM, CCPA 0 μM, MM.1S, 72 h): 36%
percent inhibition of cell proliferation (MM.1S cells [3]; DEX 11.2 nM alone, listed as DEX): 28% and 54%
percent inhibition of cell proliferation (MM.1S cells [3]; DEX 11.2 nM, Cl-IB-MECA 0 nM, MM.1S, 72 h): 29%
percent inhibition of cell proliferation (MM.1S cells [3]; DEX 33.7 nM alone, listed as DEX): 48% and 64%
percent inhibition of cell proliferation (MM.1S cells [3]; DEX 33.7 nM, Cl-IB-MECA 0 nM, MM.1S, 72 h): 56%
percent inhibition of cell proliferation (MM.1S cells [3]; DEX 0.0378 μM alone): 61%
percent inhibition of cell proliferation (MM.1S cells [3]; DEX 50 nM alone, listed as DEX): 55% and 79% and 70%
percent inhibition of cell proliferation (MM.1S cells [3]; DEX 50 nM, CCPA 0 μM, MM.1S, 72 h): 72%
percent inhibition of cell proliferation (MM.1S cells [3]; DEX 101 nM alone, listed as DEX): 64% and 68%
percent inhibition of cell proliferation (MM.1S cells [3]; DEX 101 nM, Cl-IB-MECA 0 nM, MM.1S, 72 h): 67%
percent inhibition of cell proliferation (MM.1S cells [3]; DEX 0.113 μM alone): 76%
percent inhibition of cell proliferation (MM.1S cells [3]; DEX 150 nM alone, listed as DEX): 73% and 87% and 80%
percent inhibition of cell proliferation (MM.1S cells [3]; DEX 150 nM, CCPA 0 μM, MM.1S, 72 h): 76%
percent inhibition of cell proliferation (MM.1S cells [3]; DEX 303 nM alone): 70%
percent inhibition of cell proliferation (MM.1S cells [3]; DEX 0.34 μM alone): 78%
percent inhibition of cell proliferation (MM.1S cells [3]; DEX 1.02 μM alone): 82%
percent inhibition of cell proliferation (MM.1S cells [3]; DEX 0.0462. nM alone): −2.5%
percent inhibition of cell proliferation (MM.1S cells [3]; DEX 0.4.16 nM alone): −5.2%
percent inhibition of cell proliferation (MM.1S cells [3]; DEX 0.4.16 nM, Cl-IB-MECA 0 nM, MM.1S, 72 h): 4.5%
percent inhibition of cell proliferation (MM.1S cells [3]; DEX 3.74. nM alone): 18%
percent inhibition of cell proliferation (MM.1S cells [3]; DEX […], Cl-IB-MECA 0 nM, MM.1S, 72 h): 9.7%
change in IC50 when cultured in the presence of IL-6 (MM.1S cells [3]; MM.1S, 72 hours, 10 ng/ml IL-6 vs no IL-6): 2.9 fold
synergy score (MM.1S cells [3]; in combination with ADAC, MM.1S): 1.98
synergy score (MM.1S cells [3]; in combination with CGS-21680, MM.1S): 8.06

COC1=C2C[C@@H](C)C[C@H](OC)[C@H](O)[C@@H](C)/C=C(\C)[C@H](OC(N)=O)[C@@H](OC)/C=C\C=C(/C)C(=O)NC(=CC1=O)C2=O [geldanomycin]
synergy score (H929 cells): 1.82
synergy score (EJM cells; in combination with HE-NECA): 1.48
synergy score (KSM-12-PE cells; in combination with HE-NECA, KSM-12_PE): 1.37
synergy score [4]: 1.27
synergy score [5]: 1.84
synergy score [6]: 2.1
synergy score [7]: 2.47
synergy score (MM.1S cells [3]): 2.2
